Source: article PMC7904827 (Scientific Reports, 2021)
Where a name gives a salt, the structure may show the parent alone.

Key:
[1] = Approximate solubility in distilled water at room temperature; assay type: physicochemical; conditions: distilled water, room temperature
Procedure: The syntheses of the target prodrugs were performed according to a known three-step procedure with some modifications. Target prodrugs GK-667, GK-678 and GK-691 were obtained in 34%, 37% and 17% overall yields, respectively. […] The resulting solutions remained physically stable for at least two hours at room temperature.

[2] = ICRF-193 release from the prodrugs during incubation in DMEM (thermomixer, UHPLC-MS/MS); assay type: in vitro ADME; conditions: 100 µM, 37 °C
Procedure: All samples were spiked with the internal standards. DMEM or buffer (100 μL) was diluted with an ice-cold methanol/water mixture (20:80, v/v), mixed and analyzed. Plasma (50 μL) was precipitated with ice-cold methanol (1:5, v/v), mixed (20 s) and centrifuged (10 min, 10,000 rpm, 4 °C). NVCM pellets (4.8 × 10^6 cells) were precipitated with ice-cold methanol (250 μL), mixed (20 s), sonicated in a cold ultrasonic bath (75 s), mixed (30 s) and centrifuged (10 min, 10,000 rpm, 4 °C). The supernatants from the plasma and NVCM extractions were filtered (0.22 μm, PVDF) prior to analysis. For assay of the prodrugs, the samples were acidified with formic acid to a final concentration of 0.5%.
The samples were analyzed using two UHPLC instruments both coupled to a triple quadrupole mass spectrometer. […] Positive ionization mode was used in both methods. The analytical columns tested are characterized in the Supplementary materials.
The prodrugs (100 μM) were incubated (37 °C) in DMEM in a thermomixer (Thermomixer Comfort, Eppendorf, Germany) under gentle mixing (350 rpm) for 48 h.
From all of the above described experiments, samples were taken at predefined intervals, treated and immediately analyzed. All experiments were performed in four replicates, and the results are expressed as the mean ± SD.

[3] = test system: neonatal ventricular cardiomyocytes (NVCMs); test: Toxicity of the prodrugs alone in NVCMs (LDH release); assay type: cell-based, rat
Procedure: After 3 h, DAU solution (1.2 µM) was added to the media. After another 3 h, the medium was replaced with new (drug-free) exposure medium, and the cardiomyocytes were then kept until the end of the experiment. In addition to cytoprotective properties, the toxicity of the studied agent was also examined; this experiment was performed as described above with only the DAU addition step omitted.
Forty-five hours after the last medium exchange, a sample of medium was taken from each well to assess lactate dehydrogenase (LDH) activity[27]–[29]. For details, see the Supplementary material.
1.5 LDH activity evaluation
The control wells were treated with lysis buffer (0.1 M potassium phosphate, 1% Triton
X-100, 1 mM DTT, 2 mM EDTA; pH 7.8; 15 min; room temperature) to measure the total
cellular LDH level (sum of the activity in the control medium and the lysate). The activity of
LDH was assayed in Tris-HCl buffer (pH 8.9) containing 35 mM sodium lactate and 5 mM
NAD+. The rate of NAD+ reduction was monitored spectrophotometrically at 340 nm for 2 min.
The slope of the linear region and molar absorption coefficient e = 6.22*10 3 M/cm were used
to calculate the LDH activity, and the data were expressed as a percentage of total L DH activity. […]

[4] = Process stability in untreated plasma; assay type: in vitro ADME, rabbit; conditions: within 10 min
Procedure: Linearity was tested within the concentration range of 0.2 – 100 μM for all compounds in DMEM, the buffer and plasma and 10-100 pmol/106cells in NVCMs (method I). For method II, the concentration ranges 0.01-15 μM and 0.01-1 μM were used for determination of ICRF-193 and ICRF-193met in plasma, respectively. Unweighted and weighted (1/x and 1/x2) linear regression was applied to obtain the best fitting calibration model. […]
(§1) Stability of the analytes was examined at low and high concentrations. Process s tability (n=3) in plasma was tested for 20 min at either laboratory temperature (23 °C) or on ice (4 °C, only for GK-667). Post-preparation stability was examined for 8 to 10 h in an autosampler (8 °C, n=3) for all treated matrices. […]

[5] = Post-preparation stability of the extracted analytes in autosampler (8 °C); assay type: physicochemical
Procedure: Linearity was tested within the concentration range of 0.2 – 100 μM for all compounds in DMEM, the buffer and plasma and 10-100 pmol/106cells in NVCMs (method I). For […]
Unweighted and weighted (1/x and 1/x2) linear regression was applied to obtain the best fitting calibration model.
Accuracy and precision were calculated at 4 levels (LLOQ, low, medium and high concentrations). Five quality control (QC) samples were used for all concentration levels. […]
as §1
plasma was tested at -80 °C and the freezing cycle was repeated twice (n=3). The buffer, DMEM, NVCMs and plasma samples containing GK -667 from in vitro studies and from first intervals of pharmacokinetic study (up to 20 min) w ere treated and analyzed immediately after […]

C[C@H]([C@H](C)N1CC(=O)N(COC(=O)CN)C(=O)C1)N1CC(=O)N(COC(=O)CN)C(=O)C1 [GK-667, meso-2,3-bis(4-(2-aminoacetoxymethyl)-3,5-dioxopiperazin-1-yl)butane tetrahydrochloride]
solubility [1]: ~20 mg/mL | conversion to the inactive metabolite ICRF-193met ([2]; AUC0–3 h and AUC0–48 h, compared with the other prodrugs): lowest conversion | AUC0–3 h of ICRF-193 concentrations ([2]; GK-667 compared with GK-678): no statistically significant differences | AUC0–48 h of ICRF-193 concentrations ([2]; GK-667 compared with GK-678): significantly higher | cytotoxicity of the prodrug alone towards NVCMs ([3]; LDH release, without DAU): nontoxic on its own | LDH release, statistical significance compared to control ([3]; prodrug alone 1–100 µM, NVCMs, n.s. or c in Fig. S2): n.s. | GK-667 decomposed ([4]; plasma samples at room temperature (23 °C)): ~50% | GK-667 decomposed ([4]; plasma samples on ice): less than 6% | percentage of initial concentration in autosampler ([5]; extracted DMEM, 100 µM, 0 h): 100.1% | percentage of initial concentration in autosampler ([5]; extracted DMEM, 100 µM, 8 h): 92.2% | percentage of initial concentration in autosampler ([5]; extracted DMEM, 100 µM, 10 h): 90.2% | percentage of initial concentration in autosampler ([5]; extracted NVCMs, 100 pmol/106 cells, 0 h): 103.3% | percentage of initial concentration in autosampler ([5]; extracted NVCMs, 100 pmol/106 cells, 8 h): 105.2% | percentage of initial concentration in autosampler ([5]; extracted NVCMs, 100 pmol/106 cells, 10 h): 103.3% | percentage of initial concentration in autosampler ([5]; extracted buffer, 100 µM, 0 h): 99.5% | percentage of initial concentration in autosampler ([5]; extracted buffer, 100 µM, 8 h): 92.9% | percentage of initial concentration in autosampler ([5]; extracted buffer, 100 µM, 10 h): 92.8% | percentage of initial concentration in autosampler ([5]; extracted plasma, 100 µM, 0 h): 101.5% | percentage of initial concentration in autosampler ([5]; extracted plasma, 100 µM, 8 h): 102.1% | percentage of initial concentration in autosampler ([5]; extracted plasma, 100 µM, 10 h): 102.7%
